Experimental data taken from patent US20040247696A1, “Methods of using electron active compounds for managing conditions afflicting mammals” (priority 2001, published 2004).

Legend:
[1] = animals not prone to silver allergies
Excerpt: Preferred routes of administration include topically and application to mucosa. Application can be made, for example, digitally or using a suitable applicator.

[2] = system: coliform; experiment: AOAC culture test, coliform-contaminated water; format: cell-based; settings: about 2 PPM XeF2 + about 20 PPM KPS, pH about 7, 37.4 cfu/mL
Method: These and other aspects of the present invention may be more fully understood with reference to the following examples, which are merely illustrative of the preferred embodiments of the present invention, and are not to be construed as limiting the invention, the scope of which is defined by the appended claims. Unless otherwise indicated, antimicrobial evaluations of the various fluorinator compounds tested were performed versus control samples in cultures in accordance with the protocol as set forth in AOAC (15th) 1990:965:13 at colony densities indicated in the examples.
Contaminated water was prepared and measured to have AOAC coliform counts averaging 37.4 colony forming units per milliliter (cfu/mL). The water was treated by first adding crystal potassium monopersulfate (KPS) stabilizer, commercially available from E.I. DuPont de Nemours & Co. Corp. as OXONE®, and xenon difluoride (XeF2). The concentration in solution of the KPS and XeF2 was about 20 PPM and about 2 PPM respectively, and the pH of the treated solution was about 7.

[3] = system: salmonella; experiment: AOAC culture test, salmonella-contaminated aqueous solutions; format: cell-based; settings: ten minutes exposure
Method: Unless otherwise indicated, antimicrobial evaluations of the various fluorinator compounds tested were performed versus control samples in cultures in accordance with the protocol as set forth in AOAC (15th) 1990:965:13 at colony densities indicated in the examples.
Aqueous solutions were prepared having a salmonella contamination at a cell density of about 500,000 cfu/mL. Two solutions of XeF2 were prepared: one as a 1% solution in 85% phosphoric acid stabilizer, and a second solution containing no stabilizer. The materials were cultured versus controls at concentrations of about 2 ppm and about 4 ppm XeF2 and at a pH of about 9.

| Compound | Ill effects or irritation on application to the skin [1] | coliform inhibition ([2]; 5 minutes exposure) | coliform inhibition ([2]; 10 minutes exposure) | salmonella inhibition ([3]; about 2 ppm XeF2, pH about 9, about 500,000 cfu/mL) | salmonella inhibition ([3]; about 4 ppm XeF2, pH about 9, about 500,000 cfu/mL) |
| --- | --- | --- | --- | --- | --- |
| [Ag+].[Ag+].[Ag+].[Ag+].[O-2].[O-2].[O-2].[O-2] [Ag4O4, tetrasilver tetroxide] | without any ill effects or evidence of irritation | – | – | – | – |
| F[Xe]F [XeF2, xenon difluoride] | – | about 73% | about 77% | about 13.2% | about 96.4% |
